Experimental data as given in patent US11572373B2, “Maytansinoid-based drug delivery systems” (LADRX CORPORATION, priority 2017, dated 2023).

Test system: cancer cell lines (LXFL 529, RKO, SW-620, CAL-27, LXFL 1674L, MDA-MB 468, SK-OV-3, PAXF 1657, MCF7, COLO 205, MDA-MB 231, BT-474, Hep G2)
Assay: In vitro cytotoxicity in different cell lines using the CellTiter-Blue Cell Viability Assay
Assay type: cell-based, human
Details: geometric mean over the n cell lines tested, 96 h treatment, CellTiter-Blue; read-out: Geomean IC50

Structure (SMILES)	IC50 [nM]
COc1cc2cc(c1Cl)N(C)C(=O)C[C@H](OC(=O)[C@H](C)N(C)C(=O)CCSSC)[C@]1(C)O[C@H]1[C@H](C)[C@@H]1C[C@@](O)(NC(=O)O1)[C@H](OC)/C=C/C=C(\C)C2 [DM1-SMe, reference compound]	1.3
COc1cc2cc(c1Cl)N(C)C(=O)C[C@H](OC(=O)[C@H](C)N(C)C(=O)CCS)[C@]1(C)O[C@H]1[C@H](C)[C@@H]1C[C@@](O)(NC(=O)O1)[C@H](OC)/C=C/C=C(\C)C2 [DM1, reference compound]	3.22
